This note sets out measurements from patent US20230279016A1, “Tetrahydropyrazolopyrimidines and Related Analogs for Inhibiting YAP/TAZ-TEAD” (THE KATHOLIEKE UNIVERSITEIT LEUVEN, priority 2021, published 2023).

What all share (assay type): cell-based
For assay [1], the system named is YAP/TAZ-TEAD transcription. The experiment in a line: Reporter gene assay for measuring the inhibition of YAP/TAZ-TEAD transcription (TEAD-responsive element luciferase reporter in Hek293T cells). The note with it: Hek293T cells transiently transfected with TEAD-responsive element luciferase reporter, 24 hours incubation. In outline: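 Hek293T cells transiently transfected with TEAD-responsive luciferase reporter, exposed to compound for 24 h at 37° C/5% CO2, then read by luminescence. Percent inhibition normalized to vehicle (0%) and positive control inhibitor (100%); EC50 reported as activity ranges.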

Assay [2] has as its system NCI-H226 mesothelioma cell line. Put plainly: Mesothelioma cell line proliferation assay, NCI-H226. The following applies: NCI-H226, 6 days with compound, cell viability by ATPlite. How it is done: (§1) Mesothelioma cell lines, NCI-H226 and NCI-H2052 (all sourced from the ATCC cell culture collection) are plated in 96-well plates (Corning® 96 Well White Polystyrene Microplate clear flat bottom, white polystyrene (TC-Treated)), at 1500 cells/well in full medium (RPMI 1640 ATCC modification with L-glutamine, HEPES, Phenol Red, Sodium Pyruvate, High glucose, Low sodium bicarbonate and 10% fetal bovine serum). Cells are incubated overnight at 37° C. in an incubator with 5% CO2. Then compounds, dissolved in DMSO, are added in dose-response. Cells are incubated with compound dilutions for another 6 days at 37° C. in an incubator with 5% CO2. Cell viability is quantitated using the ATPlite kit (Perkin-Elmer) and the luminescence is read-out using an Envision instrument (Perkin-Elmer). The amount of relative light units produced using the ATPlite kit is used to calculated percent of inhibition.
(§2) The activities of example compounds tested are depicted in the table below. The activity ranges A, B and C refer to EC50 values in the mesothelioma cell line proliferation assay as described as follows: “A”: EC50 <1 μM; “B” : 1 μM EC50 ≤10 μM and “C” : EC50 >10 μM. NT: not tested.

Assay [3] relates to NCI-H2052 mesothelioma cell line. Put plainly: Mesothelioma cell line proliferation assay, NCI-H2052. The following applies: NCI-H2052, 6 days with compound, cell viability by ATPlite. How it is done: as §1, §2

pEC50: −log10 of the molar value.

Turning to `C=CC(=O)NCC1CN(c2ccc(C(F)(F)F)cc2)c2ccnn2C1` (stereo not drawn) [Cpd. No. 002, N-((4-(4-(trifluoromethyl)phenyl)-4,5,6,7-tetrahydropyrazolo[1,5-a]pyrimidin-6-yl)methyl)acrylamide], the pEC50 in assay [1] (Homo sapiens, HEK-293T, 24 h) is more than 6.00; in assay [2] (Homo sapiens, NCI-H226, 144 h) it was more than 6.00; in assay [3] (Homo sapiens, NCI-H2052, 144 h), more than 6.00.

Regarding `C=CC(=O)NCC1CN(c2ccc(S(F)(F)(F)(F)F)cc2)c2ccnn2C1` (single isomer, unassigned) [Cpd. No. 023-En1, (R)- or (S)-N-((4-(4-(pentafluoro-l6-sulfaneyl)phenyl)-4,5,6,7-tetrahydropyrazolo[1,5-a]pyrimidin-6-yl)methyl)acrylamide], the pEC50 in assay [1], in assay [2] and in assay [3] was more than 6.00 throughout.

As to `C=CC(=O)NC1CN(c2ccc(OC(F)(F)F)cc2)c2ccnn2C1` (stereo not drawn) [Cpd. No. 063, N-(4-(4-(trifluoromethoxy)phenyl)-4,5,6,7-tetrahydropyrazolo[1,5-a]pyrimidin-6-yl)acrylamide], the pEC50 in assay [1] (Homo sapiens, HEK-293T, 24 h) was more than 6.00; in assay [2] (Homo sapiens, NCI-H226, 144 h), more than 6.00; in assay [3] (Homo sapiens, NCI-H2052, 144 h), more than 6.00.

As for `C#CC(=O)NCC1CN(c2ccc(C(F)(F)F)cc2)c2ccnn2C1` (stereo not drawn) [Cpd. No. 038, N-((4-(4-(trifluoromethyl)phenyl)-4,5,6,7-tetrahydropyrazolo[1,5-a]pyrimidin-6-yl)methyl)propiolamide], the pEC50 was more than 6.00 in assay [1] (Homo sapiens, HEK-293T, 24 h); 5.00 to 6.00 in assay [2] (Homo sapiens, NCI-H226, 144 h); more than 6.00 in assay [3] (Homo sapiens, NCI-H2052, 144 h).

With `C=CC(=O)NCC1Cc2nn(C)cc2N(c2ccc(C(F)(F)F)cc2)C1` (stereo not drawn) [Cpd. No. 069, N-((2-methyl-4-(4-(trifluoromethyl)phenyl)-4,5,6,7-tetrahydro-2H-pyrazolo[4,3-b]pyridin-6-yl)methyl)acrylamide], the negative logarithm of the EC50 (pEC50) is more than 6.00 in assay [1] (Homo sapiens, HEK-293T, 24 h); more than 6.00 in assay [2] (Homo sapiens, NCI-H226, 144 h); more than 6.00 in assay [3] (Homo sapiens, NCI-H2052, 144 h).

On to `C=CC(=O)NCC1Cc2c(cnn2C)N(c2ccc(OC(F)(F)F)cc2)C1` (stereo not drawn) [Cpd. No. 070, N-((1-methyl-4-(4-(trifluoromethoxy)phenyl)-4,5,6,7-tetrahydro-1H-pyrazolo[4,3-b]pyridin-6-yl)methyl)acrylamide], for which the pEC50 was more than 6.00 in assay [1] (Homo sapiens, HEK-293T, 24 h); more than 6.00 in assay [2] (Homo sapiens, NCI-H226, 144 h); more than 6.00 in assay [3] (Homo sapiens, NCI-H2052, 144 h).

Regarding `C=CC(=O)NCC1Cc2c(cnn2Cc2cccc(C(N)=O)c2)N(c2ccc(C(F)(F)F)cc2)C1` (stereo not drawn) [Cpd. No. 080, 3-((6-(acrylamido-methyl)-4-(4-(trifluoromethyl)phenyl)-4,5,6,7-tetrahydro-1H-pyrazolo[4,3-b]pyridin-1-yl)methyl)benzamide], the pEC50 was more than 6.00 in assay [1] (Homo sapiens, HEK-293T, 24 h); more than 6.00 in assay [2] (Homo sapiens, NCI-H226, 144 h); more than 6.00 in assay [3] (Homo sapiens, NCI-H2052, 144 h).

In the case of `C=CC(=O)NC1CN(c2ccc(C(F)(F)F)cc2F)c2ccnn2C1` (single isomer, unassigned) [Cpd. No. 065-En1, (R)- or (S)-N-(4-(2-fluoro-4-(trifluoromethyl)phenyl)-4,5,6,7-tetrahydropyrazolo[1,5-a]pyrimidin-6-yl)acrylamide], the negative-log EC50 (pEC50) is more than 6.00 in assay [1] (Homo sapiens, HEK-293T, 24 h); more than 6.00 in assay [2] (Homo sapiens, NCI-H226, 144 h); more than 6.00 in assay [3] (Homo sapiens, NCI-H2052, 144 h).

Turning to `C=CC(=O)NCC1CN(c2ccc(C(C)(C)C)cc2)c2ccnn2C1` (single isomer, unassigned) [Cpd. No. 014-En1, (R)- or (S)-N-((4-(4-(tert-butyl)phenyl)-4,5,6,7-tetrahydropyrazolo[1,5-a]pyrimidin-6-yl)methyl)acrylamide], the pEC50 in assay [1] (Homo sapiens, HEK-293T, 24 h) was more than 6.00; in assay [2] (Homo sapiens, NCI-H226, 144 h), more than 6.00; in assay [3] (Homo sapiens, NCI-H2052, 144 h), more than 6.00.

With `C=CC(=O)NCC1CN(c2ccc(C(F)(F)F)cn2)c2ccnn2C1` (single isomer, unassigned) [Cpd. No. 008-En2, (R)- or (S)-N-((4-(5-(trifluoromethyl)pyridin-2-yl)-4,5,6,7-tetrahydropyrazolo[1,5-a]pyrimidin-6-yl)methyl)acrylamide], the pEC50 in assay [1], in assay [2] and in assay [3] was more than 6.00 in each case.

In the case of `C=CC(=O)NCC1CN(c2ccc(C(F)(F)F)cc2)c2cc(CC3CC3)nn2C1` (stereo not drawn) [Cpd. No. 032, N-((2-(cyclopropylmethyl)-4-(4-(trifluoromethyl)phenyl)-4,5,6,7-tetrahydropyrazolo[1,5-a]pyrimidin-6-yl)methyl)acrylamide], the pEC50 was more than 6.00 in assay [1] (Homo sapiens, HEK-293T, 24 h); more than 6.00 in assay [2] (Homo sapiens, NCI-H226, 144 h); more than 6.00 in assay [3] (Homo sapiens, NCI-H2052, 144 h).

For the compound `O=C1NCCC12CN(c1ccc(C(F)(F)F)cc1)c1ccnn1C2` (stereo not drawn) [Cpd. No. 087, 4-(4-(trifluoromethyl)phenyl)-4,5-dihydro-7H-spiro[pyrazolo[1,5-a]pyrimidine-6,3′-pyrrolidin]-2′-one], the pEC50 in assay [1] (Homo sapiens, HEK-293T, 24 h) was more than 6.00; in assay [2] (Homo sapiens, NCI-H226, 144 h), less than 5.00; in assay [3] (Homo sapiens, NCI-H2052, 144 h), less than 5.00.

In the case of `C=CC(=O)NCC1CN(c2ccc(C3CC3)cc2)c2ccnn2C1` (single isomer, unassigned) [Cpd. No. 022-En1, (R)- or (S)-N-((4-(4-cyclopropylphenyl)-4,5,6,7-tetrahydropyrazolo[1,5-a]pyrimidin-6-yl)methyl)acrylamide], the pEC50 in assay [1] (Homo sapiens, HEK-293T, 24 h) was more than 6.00; in assay [2] (Homo sapiens, NCI-H226, 144 h) it was more than 6.00; in assay [3] it was more than 6.00.

For `C=C(C)C(=O)NCC1CN(c2ccc(C(F)(F)F)cc2)c2ccnn2C1` (stereo not drawn) [Cpd. No. 040, N-((4-(4-(trifluoromethyl)phenyl)-4,5,6,7-tetrahydropyrazolo[1,5-a]pyrimidin-6-yl)methyl)methacrylamide], the negative logarithm of the EC50 (pEC50) in assay [1] (Homo sapiens, HEK-293T, 24 h) was more than 6.00; in assay [2] (Homo sapiens, NCI-H226, 144 h), more than 6.00; in assay [3] (Homo sapiens, NCI-H2052, 144 h), less than 5.00.

As for `C=CC(=O)NCC1CN(Cc2ccc(C(F)(F)F)cc2)c2ccnn2C1` (stereo not drawn) [Cpd. No. 048, N-((4-(4-(trifluoro-methyl)benzyl)-4,5,6,7-tetrahydropyrazolo[1,5-a]pyrimidin-6-yl)methyl)acrylamide], the pEC50 is more than 6.00 in assay [1] (Homo sapiens, HEK-293T, 24 h); more than 6.00 in assay [2] (Homo sapiens, NCI-H226, 144 h); more than 6.00 in assay [3] (Homo sapiens, NCI-H2052, 144 h).

On to `C=CC(=O)NCC1CN(c2ccc(C(F)(F)F)cn2)c2ccnn2C1` (single isomer, unassigned) [Cpd. No. 008-En1, (R)- or (S)-N-((4-(5-(trifluoromethyl)pyridin-2-yl)-4,5,6,7-tetrahydropyrazolo[1,5-a]pyrimidin-6-yl)methyl)acrylamide], for which the negative logarithm of the EC50 (pEC50) in assay [1] (Homo sapiens, HEK-293T, 24 h) is more than 6.00; in assay [2] (Homo sapiens, NCI-H226, 144 h) it was more than 6.00; in assay [3] (Homo sapiens, NCI-H2052, 144 h), more than 6.00.

Take `C=CC(=O)N1CCC2(C1)CN(c1ccc(C(F)(F)F)cc1)c1ccnn1C2` (stereo not drawn) [Cpd. No. 088, 1-(4-(4-(trifluoromethyl)phenyl)-4,5-dihydro-7H-spiro[pyrazolo[1,5-a]pyrimidine-6,3′-pyrrolidin]-1′-yl)prop-2-en-1-one]: the pEC50 in assay [1] (Homo sapiens, HEK-293T, 24 h) was more than 6.00; in assay [2] (Homo sapiens, NCI-H226, 144 h), more than 6.00; in assay [3] (Homo sapiens, NCI-H2052, 144 h) it was more than 6.00.

For `C=CC(=O)NCC1CN(c2ccc(OC(F)(F)F)cc2)c2ccnn2C1` (stereo not drawn) [Cpd. No. 011, N-((4-(4-(trifluoromethoxy)phenyl)-4,5,6,7-tetrahydropyrazolo[1,5-a]pyrimidin-6-yl)methyl)acrylamide], the pEC50 is more than 6.00 in assay [1] (Homo sapiens, HEK-293T, 24 h); more than 6.00 in assay [2] (Homo sapiens, NCI-H226, 144 h); more than 6.00 in assay [3].

For the compound `C=CC(=O)NCC1CN(c2ccc(C(F)(F)F)c(F)c2)c2ccnn2C1` (stereo not drawn) [Cpd. No. 015, N-((4-(3-fluoro-4-(trifluoromethyl)phenyl)-4,5,6,7-tetrahydropyrazolo[1,5-a]pyrimidin-6-yl)methyl)acrylamide], the pEC50 in assay [1] (Homo sapiens, HEK-293T, 24 h) was more than 6.00; in assay [2] (Homo sapiens, NCI-H226, 144 h), more than 6.00; in assay [3] (Homo sapiens, NCI-H2052, 144 h), more than 6.00.

With `C=CC(=O)NCC1Cc2nn(C(F)F)cc2N(c2ccc(C(F)(F)F)cc2)C1` (single isomer, unassigned) [Cpd. No. 085-En2, (R)- or (S)-N-((2-(difluoromethyl)-4-(4-(trifluoromethyl)phenyl)-4,5,6,7-tetrahydro-2H-pyrazolo[4,3-b]pyridin-6-yl)methyl)acrylamide], the pEC50 in assay [1] (Homo sapiens, HEK-293T, 24 h) was more than 6.00; in assay [2] (Homo sapiens, NCI-H226, 144 h) it was more than 6.00; in assay [3] (Homo sapiens, NCI-H2052, 144 h) it was more than 6.00.

As to `C=CC(=O)NCC1CN(c2ccc(OC(F)F)cc2)c2ccnn2C1` (single isomer, unassigned) [Cpd. No. 012-En2, (R)- or (S)-N-((4-(4-(difluoromethoxy)phenyl)-4,5,6,7-tetrahydropyrazolo[1,5-a]pyrimidin-6-yl)methyl)acrylamide], the pEC50 in assay [1] is more than 6.00; in assay [2], more than 6.00; in assay [3] it was less than 5.00.

Take `FC(F)(F)c1ccc(N2CC(C3CC(Br)=NO3)Cn3nccc32)cc1` (single isomer, unassigned) [Cpd. No. 086-Dia1, 3-bromo-5-(4-(4-(trifluoromethyl)phenyl)-4,5,6,7-tetrahydropyrazolo[1,5-a]pyrimidin-6-yl)-4,5-dihydroisoxazole]: the negative-log EC50 (pEC50) in assay [1] (Homo sapiens, HEK-293T, 24 h) was more than 6.00; in assay [2] (Homo sapiens, NCI-H226, 144 h), more than 6.00; in assay [3] (Homo sapiens, NCI-H2052, 144 h) it was more than 6.00.
